Experimental data from US9216968B2, “Heterocyclic derivative and pharmaceutical drug” (NIPPON SHINYAKU CO., LTD., priority 2011, dated 2015).
Where a name gives a salt, the structure may show the parent alone.

Assays:
human mPGES-1 = human mPGES-1 (Homo sapiens (Human), UniProt O14684); assay: mPGES-1 inhibiting activity (microsome fractions, PGE2 by HTRF); format: biochemical; details: microsomes from CHO-K1 cells transfected with human mPGES-1; PGH2 1 μM, 4° C., 60 seconds; read-out: mPGES-1 Inhibition IC50
Outline: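 PGE2 formation read by HTRF after 60 s at 4 °C with 1 μM PGH2 substrate, following 20 min compound preincubation (1% DMSO) with human mPGES-1 microsomes from transfected CHO-K1 cells. Buffer: potassium phosphate, reduced glutathione, pH 7.4; IC50 from activity relative to enzyme-free blank.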

A549 cells = assay: Inhibition of PGE2 production in A549 cell (IL-1β stimulated); format: cell-based, human; details: Homo sapiens, A549, 24 h, IL-1β 5 ng/well, PGE2 in culture medium
Outline: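 After IL-1β (5 ng/well) stimulation for 24 h at 37 °C, following a 60-min compound pretreatment in RPMI with 3% FBS, medium PGE2 (HTRF) and PGF2α (EIA) from human A549 cells were quantified. 100% activity set as IL-1β-induced minus basal production; IC50 calculated.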

Chain of human mPGES-1 (O14684 whole entry): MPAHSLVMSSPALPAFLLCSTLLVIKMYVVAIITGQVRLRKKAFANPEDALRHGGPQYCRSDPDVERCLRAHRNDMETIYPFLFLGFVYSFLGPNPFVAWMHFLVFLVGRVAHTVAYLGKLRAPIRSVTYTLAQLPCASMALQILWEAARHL

| IC50 (human mPGES-1) | IC50 (A549 cells) | SMILES |
| --- | --- | --- |
| 0.3 nM | 87.3 nM | Cc1c(Cl)cccc1NC(=O)c1cc(NC(=O)c2ccccc2C(F)(F)F)cc2[nH]c(Cl)nc12 [Example 135, 2-Chloro-N-(3-chloro-2-methylphenyl)-6-({[2-(trifluoromethyl)phenyl]carbonyl}amino)-1H-benzimidazole-4-carboxamide] |
| 2.4 nM | 61.9 nM | COCCNc1nc2c(C(=O)Nc3cccc(Cl)c3C)cc(NC(=O)c3ccccc3C(F)(F)F)cc2[nH]1 [Example 136, N-(3-Chloro-2-methylphenyl)-2-[(2-methoxyethyl)amino]-6-({[2-(trifluoromethyl)phenyl]carbonyl}amino)-1H-benzimidazole-4-carboxamide hydrochloride] |
| 3.3 nM | 1110 nM | Cc1c(Cl)cccc1NC(=O)c1cc(NC(=O)c2ccccc2C(F)(F)F)cc2[nH]c(NCCO)nc12 [Example 137, N-(3-Chloro-2-methylphenyl)-2-[(2-hydroxyethyl)amino]-6-({[2-(trifluoromethyl)phenyl]carbonyl}amino)-1H-benzimidazole-4-carboxamide hydrochloride] |
| 2.2 nM | 87.4 nM | CNc1nc2c(C(=O)Nc3cccc(Cl)c3C)cc(NC(=O)c3ccccc3C(F)(F)F)cc2[nH]1 [Example 138, N-(3-Chloro-2-methylphenyl)-2-(methylamino)-6-({[2-(trifluoromethyl)phenyl]carbonyl}amino)-1H-benzimidazole-4-carboxamide hydrochloride] |
| 1.9 nM | 72.8 nM | CCNc1nc2c(C(=O)Nc3cccc(Cl)c3C)cc(NC(=O)c3ccccc3C(F)(F)F)cc2[nH]1 [Example 139, N-(3-Chloro-2-methylphenyl)-2-(ethylamino)-6-({[2-(trifluoromethyl)phenyl]carbonyl}amino)-1H-benzimidazole-4-carboxamide hydrochloride] |
| 0.2 nM | 33 nM | Cc1c(Cl)cccc1NC(=O)c1cc(NC(=O)c2ccccc2C(F)(F)F)cc2[nH]c(NCC(C)(C)C)nc12 [Example 140, N-(3-Chloro-2-methylphenyl)-2-[(2,2-dimethylpropyl)amino]-6-({[2-(trifluoromethyl)phenyl]carbonyl}amino)-1H-benzimidazole-4-carboxamide hydrochloride] |
| 0.4 nM | 36.5 nM | Cc1c(Cl)cccc1NC(=O)c1cc(NC(=O)c2ccccc2C(F)(F)F)cc2[nH]c(NC3CCCC3)nc12 [Example 141, N-(3-Chloro-2-methylphenyl)-2-(cyclopentylamino)-6-({[2-(trifluoromethyl)phenyl]carbonyl}amino)-1H-benzimidazole-4-carboxamide hydrochloride] |
| 0.4 nM | 82.7 nM | Cc1c(Cl)cccc1NC(=O)c1cc(NC(=O)c2ccccc2C(F)(F)F)cc2[nH]c(N3CCCCC3)nc12 [Example 142, N-(3-Chloro-2-methylphenyl)-2-(piperidin-1-yl)-6-({[2-(trifluoromethyl)phenyl]carbonyl}amino)-1H-benzimidazole-4-carboxamide hydrochloride] |
| 5.3 nM | 87.5 nM | Cc1c(Cl)cccc1NC(=O)c1cc(NC(=O)c2ccccc2C(F)(F)F)cc2[nH]c(N3CCN(C)CC3)nc12 [Example 143, N-(3-Chloro-2-methylphenyl)-2-(4-methylpiperazin-1-yl)-6-({[2-(trifluoromethyl)phenyl]carbonyl}amino)-1H-benzimidazole-4-carboxamide dihydrochloride] |
| 9.7 nM | 2990 nM | Cc1c(Cl)cccc1NC(=O)c1cc(NC(=O)c2ccccc2C(F)(F)F)cc2[nH]c(N(CCO)CCO)nc12 [Example 144, 2-[Bis(2-hydroxyethyl)amino]-N-(3-chloro-2-methylphenyl)-6-({[2-(trifluoromethyl)phenyl]carbonyl}amino)-1H-benzimidazole-4-carboxamide hydrochloride] |
| 1.6 nM | 13 nM | Cc1c(Cl)cccc1NC(=O)c1cc(NC(=O)c2ccccc2C(F)(F)F)cc2[nH]c(N(C)C)nc12 [Example 145, N-(3-Chloro-2-methylphenyl)-2-(dimethylamino)-6-({[2-(trifluoromethyl)phenyl]carbonyl}amino)-1H-benzimidazole-4-carboxamide hydrochloride] |
| 3.1 nM | 129 nM | Cc1c(Cl)cccc1NC(=O)c1cc(NC(=O)c2ccccc2C(F)(F)F)cc2[nH]c(NCCN3CCOCC3)nc12 [Example 146, N-(3-Chloro-2-methylphenyl)-2-{[2-(morpholin-4-yl)ethyl]amino}-6-({[2-(trifluoromethyl)phenyl]carbonyl}amino)-1H-benzimidazole-4-carboxamide hydrochloride] |
| 15.8 nM | 186 nM | Cc1c(Cl)cccc1NC(=O)c1cc(NC(=O)c2ccccc2C(F)(F)F)cc2[nH]c(NCCN(C)C)nc12 [Example 147, N-(3-Chloro-2-methylphenyl)-2-{[2-(dimethylamino)ethyl]amino}-6-({[2-(trifluoromethyl)phenyl]carbonyl}amino)-1H-benzimidazole-4-carboxamide hydrochloride] |
| 1.9 nM | 324 nM | Cc1c(Cl)cccc1NC(=O)c1cc(NC(=O)c2ccccc2C(F)(F)F)cc2[nH]c(N3CC(O)C3)nc12 [Example 148, N-(3-Chloro-2-methylphenyl)-2-(3-hydroxyazetidin-1-yl)-6-({[2-(trifluoromethyl)phenyl]carbonyl}amino)-1H-benzimidazole-4-carboxamide hydrochloride] |
| 1 nM | 43.3 nM | Cc1c(Cl)cccc1NC(=O)c1cc(NC(=O)c2ccccc2C(F)(F)F)cc2[nH]c(N3CC[C@H](N(C)C)C3)nc12 [Example 149, N-(3-Chloro-2-methylphenyl)-2-[(3S)-3-(dimethylamino)pyrrolidin-1-yl]-6-({[2-(trifluoromethyl)phenyl]carbonyl}amino)-1H-benzimidazole-4-carboxamide dihydrochloride] |
| 2.1 nM | 376 nM | Cc1c(Cl)cccc1NC(=O)c1cc(NC(=O)c2ccccc2C(F)(F)F)cc2[nH]c(N3CC[C@H](O)C3)nc12 [Example 150, N-(3-Chloro-2-methylphenyl)-2-[(3S)-3-hydroxypyrrolidin-1-yl]-6-({[2-(trifluoromethyl)phenyl]carbonyl}amino)-1H-benzimidazole-4-carboxamide hydrochloride] |
| 11.6 nM | 328 nM | CCN(CC)CCNc1nc2c(C(=O)Nc3cccc(Cl)c3C)cc(NC(=O)c3ccccc3C(F)(F)F)cc2[nH]1 [Example 151, N-(3-Chloro-2-methylphenyl)-2-{[2-(diethylamino)ethyl]amino}-6-({[2-(trifluoromethyl)phenyl]carbonyl}amino)-1H-benzimidazole-4-carboxamide hydrochloride] |
| 31.6 nM | 854 nM | Cc1c(Cl)cccc1NC(=O)c1cc(NC(=O)c2ccccc2C(F)(F)F)cc2[nH]c(NCCN3CCCC3)nc12 [Example 152, N-(3-Chloro-2-methylphenyl)-2-{[2-(pyrrolidin-1-yl)ethyl]amino}-6-({[2-(trifluoromethyl)phenyl]carbonyl}amino)-1H-benz imidazole-4-carboxamide hydrochloride] |
| 22.3 nM | 618 nM | Cc1c(Cl)cccc1NC(=O)c1cc(NC(=O)c2ccccc2C(F)(F)F)cc2[nH]c(NCCCN(C)C)nc12 [Example 153, N-(3-Chloro-2-methylphenyl)-2-{[3-(dimethylamino)propyl]amino}-6-({[2-(trifluoromethyl)phenyl]carbonyl}amino)-1H-benzimidazole-4-carboxamide hydrochloride] |
| 20 nM | 64.4 nM | Cc1c(Cl)cccc1NC(=O)c1cc(NC(=O)c2ccccc2C(F)(F)F)cc2[nH]c(NCC(C)(C)CN(C)C)nc12 [Example 154, N-(3-Chloro-2-methylphenyl)-2-{[3-(dimethylamino)-2,2-dimethylpropyl]amino}-6-({[2-(trifluoromethyl)phenyl]carbonyl}amino)-1H-benzimidazole-4-carboxamide hydrochloride] |
| 101 nM | 209 nM | Cc1c(Cl)cccc1NC(=O)c1cc(NC(=O)c2ccccc2C(F)(F)F)cc2[nH]c(NCCN(C(C)C)C(C)C)nc12 [Example 155, N-(3-Chloro-2-methylphenyl)-2-{[2-(dipropan-2-ylamino)ethyl]amino}-6-({[2-(trifluoromethyl)phenyl]carbonyl}amino)-1H-benzimidazole-4-carboxamide hydrochloride] |
| 1.6 nM | 24.6 nM | Cc1c(Cl)cccc1NC(=O)c1cc(NC(=O)c2ccccc2C(F)(F)F)cc2[nH]c(N3CCOCC3)nc12 [Example 156, N-(3-Chloro-2-methylphenyl)-2-(morpholin-4-yl)-6-({[2-(trifluoromethyl)phenyl]carbonyl}amino)-1H-benzimidazole-4-carboxamide] |
| 3.9 nM | 10900 nM | Cc1c(Cl)cccc1NC(=O)c1cc(NC(=O)c2ccccc2C(F)(F)F)cc2[nH]c(N)nc12 [Example 157, 2-Amino-N-(3-chloro-2-methylphenyl)-6-({[2-(trifluoromethyl)phenyl]carbonyl}amino)-1H-benzimidazole-4-carboxamide hydrochloride] |
| 8.5 nM | 82.2 nM | Cc1c(Cl)cccc1NC(=O)c1cc(NC(=O)c2ccccc2C(F)(F)F)cc2[nH]c(NCC(C)(C)CO)nc12 [Example 158, N-(3-Chloro-2-methylphenyl)-2-[(3-hydroxy-2,2-dimethylpropyl)amino]-6-({[2-(trifluoromethyl)phenyl]carbonyl}amino)-1H-benzimidazole-4-carboxamide hydrochloride] |
